Test results taken from article PMC6247689, “Determination of the volatile and polyphenol constituents and the antimicrobial, antioxidant, and tyrosinase inhibitory activities of the bioactive compounds from the by-product of Rosa rugosa Thunb. var. plena Regal tea” (BMC Complementary and Alternative Medicine, 2018).
≈ marks a conversion by molar mass, not a printed value. Read-outs that look alike come from different tables or passages of the source.

Tests used:
[1] = system: candida albicans (ATCC 10231); experiment: MIC and MFC, broth microdilution; type: cell-based; details: C. albicans; for MIC: 37 °C, 24 h
Protocol: (§1) The antimicrobial activity was measured by the method described by Xue. All standard strains were obtained from the Guangdong Microbiology Culture Center (Guangzhou, China). Listeria ivanovii (ATCC 19119) was cultured in BHI, Salmonella enteritidis enteritidis (ATCC 14028) Staphylococcus aureus (ATCC 25923) and Escherichia coli (ATCC 25922) were cultured in nutrient agar (NA) for 24 h and at 37 °C. candida albicans (ATCC 10231) was cultured in PHB at 37 °C for 24 h. Propionibacterium acnes (ATCC 6919) and Fusobacterium nucleatum (ATCC 10953) were cultured in CDC agar at 37 °C for 48 h in a YQX-II anaerobic incubator (Shanghai, China). The final cell counts in l mL of broth were approximately 10^6 colony-forming units (CFU/mL). A 10 mg/mL solution of miconazole nitrate and hydrochloride tetracycline in water was used as a positive control against fungi and bacteria, respectly.
(§2) The MIC and MBC or MFC values were determined as described previously by Xue. Briefly, 100 μL dilutions (approximately 100,000 CFU/mL) of Staphylococcus aureus, Escherichia coli, Salmonella enteritidis enteritidis, Fusobacterium nucleatum, and Candida albicans in nutrient broth and Listeria ivanovii and Propionibacterium acnes in GMA broth were inoculated into microtiter plates. Then, 100 μL aliquots of the solutions of the test compound were added after a two-fold serial dilution with nutrient broth (from 2 mg/mL to 3 μg/mL). Broths with 5% (v/v) DMSO were used as controls. The petri dishes were incubated at 37 °C for 24 h with the exception of Propionibacterium acnes and Fusobacterium nucleatum, which were incubated at 37 °C for 48 h. The MIC was recorded as the lowest concentration of sample showing no detectable growth. To determine the MBC or MFC values for no bacterial or fungus growth, 10 μL of sub-inhibitory concentrations of the test compounds were incubated on CDC or GMA agar plates for 24 or 48 h. Every determination was carried out in triplicate.

[2] = system: Escherichia coli (ATCC 25922); experiment: MIC and MBC, broth microdilution; type: cell-based; details: E. coli; for MIC: 37 °C, 24 h
Protocol: as §1, §2

ABTS radical scavenging = details: 30 °C, 30 min; positive control = Trolox
Protocol: The ABTS assay of RFCS was performed according to a modified version of a previously reported method. Briefly, the stock solutions were generated by mixing equal quantities of 7.4 mM ABTS^●+ solution and 2.6 mM potassium persulfate solution, and the mixture was incubated at room temperature for 12 h in the dark. Then, the solution was equilibrated with 1 mL of ABTS^●+ solution with 50% ethanol serving as a positive control. The absorbance of the solution at 734 nm was 1.17 ± 0.02 units. […] The mixture was mixed vigorously and incubated at 30 °C for 30 min. The absorbance was then measured at […] using the spectrophotometer. […] Inhibition%=Absorbance of blank-Absorbance of sample/Absorbance of blank×100

[3] = DPPH radical scavenging activity; details: 30 min in the dark, 517 nm; positive control = ascorbic acid
Protocol: The antioxidant activity of RFCS and the standards were evaluated by DPPH radical scavenging activity using a slightly modified version of a previously reported method. […] Aliquots (100 μL) of the supernatants were transferred into a 96-well microplate, and the absorbance of each was recorded at 517 nm using a Spectramax Plus384 UV-Vis spectrophotometer (Molecular Devices, Sunnyvale, California, USA). […] The IC50 values, which represent the concentrations of rose samples and standard substance at which 50% of the DPPH radical was inhibited, were determined. The tests were performed in triplicate, and the percentage of DPPH scavenging was calculated using the following equation. Inhibition%=H0-H/H0×100 H:Absorbance of RFCS and the standards;H0:Absorbance of the blank

mushroom tyrosinase = experiment: Tyrosinase inhibitory activity (spectrophotometric, DOPA substrate); type: biochemical; details: pH 6.8, 37 °C, 15 min, positive control = kojic acid
Protocol: The reaction mixture was vortexed and maintained at 37 °C for 15 min, and then the absorption maximum of dopachrome (set at 479 nm) was measured using a microplate reader (Molecular Devices, Sunnyvale, California, USA). The tests were performed in triplicate, and the value of tyrosinase inhibition activity was calculated as described above.

[4] = system: Staphylococcus aureus (ATCC 25923); experiment: MIC and MBC, broth microdilution; type: cell-based; details: S. aureus; for MIC: 37 °C, 24 h
Protocol: as §1, §2

[5] = system: Listeria ivanovii (ATCC 19119); experiment: MIC and MBC, broth microdilution; type: cell-based; details: L. ivanovii; for MIC: 37 °C, 24 h
Protocol: as §1, §2

[6] = system: Salmonella enteritidis enteritidis (ATCC 14028); experiment: MIC and MBC, broth microdilution; type: cell-based; details: S. enteritidis enteritidis; for MIC: 37 °C, 24 h
Protocol: as §1, §2

[7] = system: Fusobacterium nucleatum (ATCC 10953); experiment: MIC and MBC, broth microdilution; type: cell-based; details: F. nucleatum; for MIC: anaerobic, 37 °C, 48 h
Protocol: as §1, §2

[8] = system: Propionibacterium acnes (ATCC 6919); experiment: MIC and MBC, broth microdilution; type: cell-based; details: P. acnes; for MIC: anaerobic, 37 °C, 48 h
Protocol: as §1, §2

[9] = Candida albicans, ATCC10231, read-out: MIC
[10] = Escherichia coli, ATCC25922, read-out: MBC
[11] = Candida albicans, ATCC10231, read-out: MFC
[12] = Staphylococcus aureus, ATCC25923, read-out: MIC
[13] = Staphylococcus aureus, ATCC25923, read-out: MBC
[14] = Listeria ivanovii, ATCC19119, read-out: MIC
[15] = Listeria ivanovii, ATCC19119, read-out: MBC
[16] = Escherichia coli, ATCC25922, read-out: MIC
[17] = Salmonella enterica, read-out: MIC
[18] = Salmonella enterica, read-out: MBC
[19] = Fusobacterium nucleatum, ATCC10953, read-out: MIC
[20] = Fusobacterium nucleatum, ATCC10953, read-out: MBC
[21] = Cutibacterium acnes, ATCC6919, read-out: MIC
[22] = Cutibacterium acnes, ATCC6919, read-out: MBC

Row | MIC [1, 9] [mg/L] | ABTS radical scavenging activity IC50 (ABTS radical scavenging) | DPPH radical scavenging activity IC50 [3] | Tyrosinase inhibition IC50 (mushroom tyrosinase) | MIC [4, 12] [mg/L] | MIC [5, 14] [mg/L] | MIC [2, 16] [mg/L] | MIC [6, 17] [mg/L] | MIC [7, 19] [mg/L] | MIC [8, 21] [mg/L] | Compound | MBC [2, 10] [mg/L] | MFC [1, 11] [mg/L] | MBC [4, 13] [mg/L] | MBC [5, 15] [mg/L] | MBC [6, 18] [mg/L] | MBC [7, 20] [mg/L] | MBC [8, 22] [mg/L] | other results
1 | 8 | – | – | – | – | – | – | – | – | – | Clc1ccc(COC(Cn2ccnc2)c2ccc(Cl)cc2Cl)c(Cl)c1 (stereo not drawn) [Miconazole Nitrate] | 16 | – | – | – | – | – | – | –
2 | 250 (≈ 2050 µM) | > 10,000 a μg/mL | > 10,000 a μg/mL | 315 ± 13 b μg/mL | 125 (≈ 1020 µM) | 250 (≈ 2050 µM) | 250 (≈ 2050 µM) | 125 (≈ 1020 µM) | 8 (≈ 65.5 µM) | 125 (≈ 1020 µM) | OCCc1ccccc1 [Phenylethyl alcohol] | 1000 (≈ 8190 µM) | 500 (≈ 4090 µM) | 250 (≈ 2050 µM) | 500 (≈ 4090 µM) | 500 (≈ 4090 µM) | 32 (≈ 262 µM) | 500 (≈ 4090 µM) | –
3 | 500 (≈ 819 µM) | 0.621 ± 0.024 c μg/mL | 0.715 ± 0.017 c μg/mL | 0.856 ± 0.014 mg/L | 250 (≈ 409 µM) | 500 (≈ 819 µM) | 250 (≈ 409 µM) | 125 (≈ 205 µM) | 62 (≈ 102 µM) | 125 (≈ 205 µM) | C[C@@H]1O[C@@H](OC[C@H]2O[C@@H](Oc3c(-c4ccc(O)c(O)c4)oc4cc(O)cc(O)c4c3=O)[C@H](O)[C@@H](O)[C@@H]2O)[C@H](O)[C@H](O)[C@H]1O [Rutin] | 1000 (≈ 1640 µM) | 1000 (≈ 1640 µM) | 500 (≈ 819 µM) | 1000 (≈ 1640 µM) | 500 (≈ 819 µM) | 500 (≈ 819 µM) | 250 (≈ 409 µM) | Tyrosinase inhibition IC50 (mushroom tyrosinase; listed as rutin): < 1 mg/L
4 | 1000 (≈ 4500 µM) | > 10,000 a μg/mL | > 10,000 a μg/mL | 635 ± 22 a μg/mL | 250 (≈ 1120 µM) | 8 (≈ 36 µM) | 500 (≈ 2250 µM) | 500 (≈ 2250 µM) | 8 (≈ 36 µM) | 125 (≈ 562 µM) | CC(C)=CCC[C@](C)(O)[C@@H]1CC=C(C)CC1 [α-bisabolol] | 1000 (≈ 4500 µM) | > 1000 | 1000 (≈ 4500 µM) | 32 (≈ 144 µM) | > 1000 | 32 (≈ 144 µM) | 500 (≈ 2250 µM) | –

Row | Compound | MIC [1, 9] [mg/L] | ABTS radical scavenging activity IC50 (ABTS radical scavenging) | DPPH radical scavenging activity IC50 [3] | Tyrosinase inhibition IC50 (mushroom tyrosinase) | MIC [4, 12] [mg/L] | MIC [5, 14] [mg/L] | MIC [2, 16] [mg/L] | MIC [6, 17] [mg/L] | MIC [7, 19] [mg/L] | MIC [8, 21] [mg/L] | MBC [2, 10] [mg/L] | MFC [1, 11] [mg/L] | MBC [4, 13] [mg/L] | MBC [5, 15] [mg/L] | MBC [6, 18] [mg/L] | MBC [7, 20] [mg/L] | MBC [8, 22] [mg/L] | other results
5 | Kaempferol-3-O-Rutinoside | – | 0.719 ± 0.016 c μg/mL | 0.808 ± 0.024 c μg/mL | 0.908 ± 0.021 mg/L | – | – | – | – | – | – | – | – | – | – | – | – | – | MFC [1]: 1000 mg/L; MIC [1]: 250 mg/L; Tyrosinase inhibition IC50 (mushroom tyrosinase; listed as kaempferol-3-O-rutinosid): < 1 mg/L; MBC [4]: 1000 mg/L; MIC [4]: 250 mg/L; MBC [5]: 1000 mg/L; MIC [5]: 500 mg/L; MBC [2]: > 1000 mg/L; MIC [2]: 500 mg/L; MBC [6]: > 1000 mg/L; MIC [6]: 500 mg/L; MBC [7]: > 1000 mg/L; MIC [7]: 500 mg/L; MBC [8]: 1000 mg/L; MIC [8]: 500 mg/L
